Test system: diarrhea-predominant IBS subjects
Test: Study S241.3.009: weekly diary questions on adequate relief
Type: in vivo, human
Conditions: for Responder rate, adequate relief of abnormal bowel habits / Responder rate, adequate relief of IBS symptoms / Responder rate, adequate relief of abdominal pain/discomfort: monthly LOCF imputation; for Responder rate, adequate relief of abnormal bowel habits / Overall responder rate, adequate relief of IBS symptoms / Overall responder rate, adequate relief of abdominal pain/discomfort / Overall responder rate, adequate relief of abnormal bowel habits / Number of months a subject was a responder: One month (Abdominal pain/discomfort) / Number of months a subject was a responder: One month (Abnormal bowel habits) / Number of months a subject was a responder: One month (IBS symptoms) / Number of months a subject was a responder: Three months (Abdominal pain/discomfort) / Number of months a subject was a responder: Three months (Abnormal bowel habits) / Number of months a subject was a responder: Three months (IBS symptoms) / Number of months a subject was a responder: Two months (Abdominal pain/discomfort) / Number of months a subject was a responder: Two months (Abnormal bowel habits) / Number of months a subject was a responder: Two months (IBS symptoms) / Number of months a subject was a responder: Zero months (Abdominal pain/discomfort) / Number of months a subject was a responder: Zero months (Abnormal bowel habits) / Number of months a subject was a responder: Zero months (IBS symptoms) / Responder rate, adequate relief of IBS symptoms / Responder rate, adequate relief of abdominal pain/discomfort: ITT, 2 mg TID; for Overall responder rate, adequate relief of IBS symptoms / Overall responder rate, adequate relief of abdominal pain/discomfort / Overall responder rate, adequate relief of abnormal bowel habits: 26-week treatment period, observed case; for Number of months a subject was a responder: One month (Abdominal pain/discomfort) / Number of months a subject was a responder: One month (Abnormal bowel habits) / Number of months a subject was a responder: One month (IBS symptoms) / Number of months a subject was a responder: Three months (Abdominal pain/discomfort) / Number of months a subject was a responder: Three months (Abnormal bowel habits) / Number of months a subject was a responder: Three months (IBS symptoms) / Number of months a subject was a responder: Two months (Abdominal pain/discomfort) / Number of months a subject was a responder: Two months (Abnormal bowel habits) / Number of months a subject was a responder: Two months (IBS symptoms) / Number of months a subject was a responder: Zero months (Abdominal pain/discomfort) / Number of months a subject was a responder: Zero months (Abnormal bowel habits) / Number of months a subject was a responder: Zero months (IBS symptoms): monthly LOCF
Protocol: Study S241.3.009 was a Phase III, a double-blind, placebo-controlled, randomized, multinational study to investigate the safety and efficacy of 2 mg TID of cilansetron over 26 weeks in diarrhea-predominant IBS subjects. The study was conducted in 146 multinational study centers. A total of 1307 subjects consented to participate, and 806 subjects were randomized. A total of 792 subjects were analyzed for efficacy and 799 subjects were analyzed for safety. Diagnosis and main criteria for inclusion were IBS subjects satisfying the Rome I criteria (1992); the diarrhea-predominant sub-population of the Rome II criteria; and a minimum abdominal pain/discomfort, stool frequency and consistency determined during the run-in period. Subjects were treated with cilansetron 2 mg tablets given orally TID or matching placebo tablets given orally TID for 26 weeks.
The primary efficacy parameter was the overall response rate for IBS symptoms, based on the weekly question concerning adequate relief of IBS symptoms (abdominal pain/discomfort, abnormal bowel habits) over the 26 weeks period. A responder was a subject who responded “yes” at least 50% of the time during his/her treatment period, with minimum treatment duration of four weeks. The two main secondary efficacy parameters were overall responder rate based on the weekly question on adequate relief of abdominal pain/discomfort and abnormal bowel habits during the 26-week treatment period. The onset of action of cilansetron was also examined using daily diary data (stool frequency, and ratings of urgency and severity) during the initial 8 weeks of trial participation. An additional key secondary efficacy parameter was the number of months (one month equals four weeks) up to six months (24-weeks) that a subject was a responder for IBS symptoms, where a responder was defined as a subject who answered the weekly question with “yes” at least twice for that month. The responder rate for the weekly diary questions on adequate relief at each month and all months, the adequate relief rate, the number of subjects with adequate relief by week, daily diary questions, IBS-QOL scores, and the interruption of activities were also assessed. Safety was evaluated by physical examination, ECG, vital signs, laboratory evaluations, concomitant medications, and AEs.
Studies S24 1.3.OO6, S24 1.3.0 1 1, and S24 1.3.009 used the following efficacy measurements: • The subjects answered the following three questions with “yes” or “no” using a phone diary at the end of each week: • a) During the last week, did you experience adequate relief of your IBS symptoms, such as abdominal pain, abdominal discomfort, abnormal bowel habits? • b) During the last week, did you experience adequate relief of your abdominal pain and/or discomfort? • c) During the last week, did you experience adequate relief of your abnormal bowel habits? • The subjects rated the following symptoms using the phone diary at the end of each day: • abdominal pain/discomfort (five-point scale); • stool consistency (seven-point Bristol Stool Scale); • stool frequency (number of bowel movements each day); • urgency (five-point scale); • straining (yes or no); • feeling of incomplete defecation (yes or no); • bloating or feeling of abdominal distension (five-point scale). • In Studies S241 A006 and S241.3.009, subjects completed the IBS-QOL Survey at Baseline (Day 1) and at the end of treatment. In Study S24 1.3.0 1 1, subjects completed the IBS-QOL Survey at Baseline (Day 1), at the end of the three-month treatment period, and at the end of rerandomized treatment.
In all three pivotal efficacy studies, the primary and main secondary efficacy parameters were based on the weekly diary questions on adequate relief and included the following: • 1. Number of months (one month equals four weeks) that a subject was a responder for the weekly diary questions on adequate relief. […]

Cc1nccn1C[C@H]1CCc2c(c3cccc4c3n2CCC4)C1=O [Cilansetron, (R)-(−)-4,5,6,8,9,10-hexahydro-10-[(2-methyl-1H-imidazol-1-yl)methyl]-11H-pyrido-[3,2,1-jk]-carbazol-11-one]
Responder rate, adequate relief of abnormal bowel habits (Each month of Months 4 to 6): 204 (52) n (%)
Overall responder rate, adequate relief of IBS symptoms (Female subjects): 132 (63) n (%)
Overall responder rate, adequate relief of abdominal pain/discomfort (Female subjects): 133 (64) n (%)
Overall responder rate, adequate relief of abnormal bowel habits (Female subjects): 141 (67) n (%)
Number of months a subject was a responder: One month (Abdominal pain/discomfort) (Female subjects, Months 1 to 3): 30 (14) n (%)
Number of months a subject was a responder: One month (Abnormal bowel habits) (Female subjects, Months 1 to 3): 25 (12) n (%)
Number of months a subject was a responder: One month (IBS symptoms) (Female subjects, Months 1 to 3): 28 (13) n (%)
Number of months a subject was a responder: Three months (Abdominal pain/discomfort) (Female subjects, Months 1 to 3): 93 (44) n (%)
Number of months a subject was a responder: Three months (Abnormal bowel habits) (Female subjects, Months 1 to 3): 91 (44) n (%)
Number of months a subject was a responder: Three months (IBS symptoms) (Female subjects, Months 1 to 3): 82 (39) n (%)
Number of months a subject was a responder: Two months (Abdominal pain/discomfort) (Female subjects, Months 1 to 3): 36 (17) n (%)
Number of months a subject was a responder: Two months (Abnormal bowel habits) (Female subjects, Months 1 to 3): 49 (23) n (%)
Number of months a subject was a responder: Two months (IBS symptoms) (Female subjects, Months 1 to 3): 47 (22) n (%)
Number of months a subject was a responder: Zero months (Abdominal pain/discomfort) (Female subjects, Months 1 to 3): 50 (24) n (%)
Number of months a subject was a responder: Zero months (Abnormal bowel habits) (Female subjects, Months 1 to 3): 44 (21) n (%)
Number of months a subject was a responder: Zero months (IBS symptoms) (Female subjects, Months 1 to 3): 52 (25) n (%)
Overall responder rate, adequate relief of IBS symptoms (Male subjects): 102 (55) n (%)
Overall responder rate, adequate relief of abdominal pain/discomfort (Male subjects): 106 (57) n (%)
Overall responder rate, adequate relief of abnormal bowel habits (Male subjects): 112 (60) n (%)
Number of months a subject was a responder: One month (Abdominal pain/discomfort) (Male subjects, Months 1 to 3): 31 (17) n (%)
Number of months a subject was a responder: One month (Abnormal bowel habits) (Male subjects, Months 1 to 3): 24 (13) n (%)
Number of months a subject was a responder: One month (IBS symptoms) (Male subjects, Months 1 to 3): 27 (15) n (%)
Number of months a subject was a responder: Three months (Abdominal pain/discomfort) (Male subjects, Months 1 to 3): 66 (35) n (%)
Number of months a subject was a responder: Three months (Abnormal bowel habits) (Male subjects, Months 1 to 3): 74 (40) n (%)
Number of months a subject was a responder: Three months (IBS symptoms) (Male subjects, Months 1 to 3): 68 (37) n (%)
Number of months a subject was a responder: Two months (Abdominal pain/discomfort) (Male subjects, Months 1 to 3): 34 (18) n (%)
Number of months a subject was a responder: Two months (Abnormal bowel habits) (Male subjects, Months 1 to 3): 34 (18) n (%)
Number of months a subject was a responder: Two months (IBS symptoms) (Male subjects, Months 1 to 3): 33 (18) n (%)
Number of months a subject was a responder: Zero months (Abdominal pain/discomfort) (Male subjects, Months 1 to 3): 55 (30) n (%)
Number of months a subject was a responder: Zero months (Abnormal bowel habits) (Male subjects, Months 1 to 3): 54 (29) n (%)
Number of months a subject was a responder: Zero months (IBS symptoms) (Male subjects, Months 1 to 3): 58 (31) n (%)
Responder rate, adequate relief of IBS symptoms (Month 1): 193 (49) n (%)
Responder rate, adequate relief of abdominal pain/discomfort (Month 1): 199 (50) n (%)
Responder rate, adequate relief of abnormal bowel habits (Month 1): 214 (54) n (%)
Responder rate, adequate relief of IBS symptoms (Month 2): 233 (59) n (%)
Responder rate, adequate relief of abdominal pain/discomfort (Month 2): 237 (60) n (%)
Responder rate, adequate relief of abnormal bowel habits (Month 2): 245 (62) n (%)
Responder rate, adequate relief of IBS symptoms (Month 3): 239 (61) n (%)
Responder rate, adequate relief of abdominal pain/discomfort (Month 3): 242 (61) n (%)
Responder rate, adequate relief of abnormal bowel habits (Month 3): 251 (64) n (%)
Responder rate, adequate relief of IBS symptoms (Month 4): 237 (60) n (%)
Responder rate, adequate relief of abdominal pain/discomfort (Month 4): 241 (61) n (%)
Responder rate, adequate relief of abnormal bowel habits (Month 4): 245 (62) n (%)
Responder rate, adequate relief of IBS symptoms (Month 5): 237 (60) n (%)
Responder rate, adequate relief of abdominal pain/discomfort (Month 5): 242 (61) n (%)
Responder rate, adequate relief of abnormal bowel habits (Month 5): 247 (63) n (%)
Responder rate, adequate relief of IBS symptoms (Month 6): 233 (59) n (%)
Responder rate, adequate relief of abdominal pain/discomfort (Month 6): 237 (60) n (%)
Responder rate, adequate relief of abnormal bowel habits (Month 6): 243 (62) n (%)
Median adequate relief rate, IBS symptoms (Months 1 to 3): 0.58
Median adequate relief rate, abdominal pain/discomfort (Months 1 to 3): 0.58
Median adequate relief rate, abnormal bowel habits (Months 1 to 3): 0.67
Overall responder rate, abdominal pain/discomfort (Months 1 to 3): 56%
Overall responder rate, abnormal bowel habits (Months 1 to 3): 62%
Overall responder rate, IBS symptoms (Months 1 to 3, observed case): 55%
Median adequate relief rate, IBS symptoms (Months 1 to 6): 0.64
Median adequate relief rate, abdominal pain/discomfort (Months 1 to 6): 0.63
Median adequate relief rate, abnormal bowel habits (Months 1 to 6): 0.70
Overall responder rate difference vs placebo across diary questions (Romania): −29% to −8
Overall responder rate difference vs placebo, each diary question (South Africa): −23%
